From patent US20180092895A1, “METHOD OF TREATMENT OF HEPATITIS C” (priority 2016, published 2018)

Tests used:
[1] = HCV replicon assay, cell viability (CytoTox-1); assay type: cell-based; conditions: human, Huh7 hepatoma cells containing a subgenomic HCV replicon, In vitro HCV replicon assay, post-infection, read-out: CC50 (concentration decreasing cell viability by 50%)
Method: (§1) Stable HCV replicons of different genotypes may be used for anti-HCV evaluation. We used the subgenomic HCV replicons of genotype 1a (H77 strain), 1b (Con1 strain), and 2a (JFH-1 strain), which are Huh7 human hepatoma cell lines that contains an HCV replicon.
Briefly, the replicon cells were plated at 5,000 cells/well into 96-well plates that were dedicated for the analysis of cell numbers (cytotoxicity) or antiviral activity. On the following day, samples were diluted with assay media and added to the appropriate wells. Cells were processed 72 hours later when the cells were still sub-confluent. For the luciferase endpoint assay, HCV replicon levels were assessed as replicon-derived Luc activity. The concentration of drug that reduced cell viability was assessed by the fluorometric CytoTox-1 cell proliferation assay (Promega), (expressed as cell numbers). For the qRT-PCR/TaqMan assay, total RNA was extracted from the replicon cells using RNeasy 96 kit (Qiagen) according to the manufacturer's protocol. Real-time RTPCR/TaqMan assays were performed to measure copy numbers of the replicon RNA and cellular ribosomal RNA. […]

[2] = tested on: cell culture-derived HCV (HCVcc); test: microbe, parasite or virus in culture; assay type: cell-based, hepatitis C virus
Method: (§2) Huh7.5 cells were grown in Dulbecco's modified essential media (DMEM), 10%0/fetal bovine serum (FBS), 1% penicillin-streptomycin (pen-strep), 1% Non-essential amino acids (NEAA) in a 5% CO2 incubator at 37° C. Huh7.5 cells were seeded at 1×10^4 cells per well into 96-well plates according to Southern Research Institute standard format. Test articles were serially diluted with DMEM plus 5% FBS. The diluted compound in the amount of […] was mixed with equal volume of cell culture-derived HCV (HCVcc), then applied to appropriate wells in the plate. Human interferon alpha-2b (rIFNα-2b) and/or Sofosbuvir were included as a positive control. After 72 hr incubation at 37° C., the cells were lysed for measurement of luciferase activity using Renilla Luciferase Assay System (Promega) according to manufacturer's instruction. The number of cells in each well were determined by CytoTox-1 reagent (Promega). Test articles were tested at 6 serial dilutions in triplicate to derive, if applicable, EC50 and EC90 (concentration inhibiting HCVcc infectivity by 50% and 90%, respectively), CC50 (concentration decreasing cell viability by 50%) and SI (selectivity index: CC50/EC50) values (Table 1).

HCV replicon = HCV replicon assay (antiviral activity, luciferase endpoint); assay type: cell-based, hepatitis C virus
Excerpt: as §1
The HCV replicon antiviral evaluation assay examined the effects of compounds at six serial dilutions. Human interferon alpha-2b (rIFNα-2b) and/or Sofosbuvir were included in each run as a positive control compound.
Briefly, the replicon cells were plated at 5,000 cells/well into 96-well plates that were dedicated for the analysis of cell numbers (cytotoxicity) or antiviral activity. On the following day, samples were diluted with assay media and added to the appropriate wells. Cells were processed 72 hours later when the cells were still sub-confluent. For the luciferase endpoint assay, HCV replicon levels were assessed as replicon-derived Luc activity. The concentration of drug that reduced cell viability was assessed by the fluorometric CytoTox-1 cell proliferation assay (Promega), (expressed as cell numbers). For the qRT-PCR/TaqMan assay, total RNA was extracted from the replicon cells using RNeasy 96 kit (Qiagen) according to the manufacturer's protocol. Real-time RTPCR/TaqMan assays were performed to measure copy numbers of the replicon RNA and cellular ribosomal RNA. Where applicable EC50 (concentration inhibiting HCV replicon by 50%), EC90 (concentration inhibiting HCV replicon by 90%), CC50 (concentration decreasing cell viability by 50%), CC90 (concentration decreasing cell viability by 90%) and SI (selectivity indices: CC50/EC50 and CC90/EC90) values were derived.

in vitro = assay type: cell-based; conditions: human
Method: as §2

COC(=O)C1=C(C)NC(C)=C(C(=O)OC(C)C)C1c1cccc2nonc12 (centres unmarked) [Isradipine, isradipine]
CC50 at 72 h [1]: 50.8 µM | EC50 ([2]; Hepatitis C virus, Huh7.5, 72 h, read-out: EC50 (concentration inhibiting HCVcc infectivity by 50%)): 12.6 µM | Selectivity index (CC50/EC50) ([2]; In vitro HCV cc assay, pre-infection): 4.07 | anti-Hepatitis C activity (in words) ([2]; hepatitis C viral infectivity assay): significant anti-Hepatitis C activity | anti-Hepatitis C activity (in words) (HCV replicon; HCV replicon assay): significant anti-Hepatitis C activity | EC50 (HCV replicon; Hepatitis C virus, GT1B, 72 h, read-out: EC50 (concentration inhibiting HCV replicon by 50%)): 51.4 µM | Selectivity index (CC50/EC50) (HCV replicon; In vitro HCV replicon assay, post-infection): 0.99 | CC50 at 72 h (in vitro): 51.2 µM
